This note sets out measurements from ChEMBL document CHEMBL1201862, “PubChem BioAssay data set” (2004).

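48-hour exposure; five concentrations; linearly interpolated endpoints. GI50 is the concentration that inhibits growth by half.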 Activity calls are given as the source filed them. No stated cut-off is given here; in the data, active = GI50 up to about 1.1 µM and inactive = higher. Where only a bound is given, the exact number is not on record here.

Test systems include OVCAR-5; SK-MEL-28; NCI-H522; RXF 393; LOX IMVI; SK-MEL-5; OVCAR-4; SF-268; OVCAR-3; UACC-257; MDA-MB-231; BT-549; KM12; HOP-62; K562; ACHN; A498; SNB-19; SF-539.
What all share (assay): inhibition of tumour cell growth, NCI panel, 48 h

Take `CCOC(=O)c1cc(C(O)P2(=O)N(CC(C)(C)C)[C@@H]3CCCC[C@H]3N2CC(C)(C)C)cn1C(=O)OC(C)(C)C` (some centres not stated): the GI50 in the experiment with OVCAR-5 is 17.3 µM (inactive); in the experiment with SK-MEL-28, 16.6 µM (inactive); in the experiment on NCI-H522, 13.8 µM (inactive); with RXF 393 it was 12 µM (inactive); in the experiment with LOX IMVI, 17.6 µM (inactive); in the experiment with SK-MEL-5, 17.5 µM (inactive). For the same compound, the GI50 is 13.9 µM (inactive) in the experiment with OVCAR-4; 15.8 µM (inactive) in the experiment with SF-268; 12.3 µM (inactive) with OVCAR-3; 14.4 µM (inactive) in the experiment with UACC-257; 16 µM (inactive) in the experiment on MDA-MB-231; 17 µM (inactive) in the experiment with BT-549. The GI50 in the experiment with KM12 is 14.8 µM (inactive); in the experiment with HOP-62, 13.7 µM (inactive); with K562, 20.1 µM (inactive); with ACHN, 28.1 µM (inactive); in the experiment with A498, 23.9 µM (inactive); in the experiment with SNB-19, 19.5 µM (inactive).
`O=C(O)C12C3C4(C(=O)O)C1C1(C(=O)O)C2C3(C(=O)O)C41` (configuration not stated): the GI50 with OVCAR-5, in the experiment on SK-MEL-28, in the experiment on NCI-H522, in the experiment on LOX IMVI, in the experiment with SK-MEL-5 and with OVCAR-4 was > 100 µM (inactive) each time. Moreover, the GI50 in the experiment with SF-268, with OVCAR-3, with UACC-257, in the experiment with SF-539, in the experiment on MDA-MB-231 and with BT-549 was > 100 µM (inactive) each time. For the same compound, the GI50 is > 100 µM (inactive) in the experiment with KM12; > 100 µM (inactive) with HOP-62; < 0.01 µM (active) in the experiment with K562; > 100 µM (inactive) in the experiment on ACHN; > 100 µM (inactive) in the experiment on A498; > 100 µM (inactive) with SNB-19.
`CCO[C@@H]1CCC([S+]([O-])c2ccc(C)cc2)=CO1` (some centres not stated): the GI50 with OVCAR-5, in the experiment on SK-MEL-28, in the experiment on NCI-H522, in the experiment with RXF 393, in the experiment on LOX IMVI and in the experiment with SK-MEL-5 was > 100 µM (inactive) each time. Besides, the GI50 in the experiment with OVCAR-4, with SF-268, with OVCAR-3, in the experiment with UACC-257, in the experiment on MDA-MB-231 and in the experiment with BT-549 was > 100 µM (inactive) each time. In addition, the GI50 was 34.2 µM (inactive) with KM12; > 100 µM (inactive) in the experiment on HOP-62; > 100 µM (inactive) with K562; > 100 µM (inactive) in the experiment with ACHN; > 100 µM (inactive) with A498; > 100 µM (inactive) in the experiment on SNB-19.
Regarding `Nc1ncnc2c1ncn2C1OC(COC2C(CO)OC(OC(C(=O)O)C(O)C(OP(=O)(O)O)C(O)C(=O)O)C(O)C2O)C(O)C1O` (configuration not stated), the GI50 is > 100 µM (inactive) in the experiment on OVCAR-5; > 100 µM (inactive) in the experiment on SK-MEL-28; 59.3 µM (inactive) in the experiment on NCI-H522; > 100 µM (inactive) with LOX IMVI; > 100 µM (inactive) in the experiment with SK-MEL-5; > 100 µM (inactive) in the experiment with OVCAR-4. The GI50 in the experiment on SF-268 was > 100 µM (inactive); with OVCAR-3, > 100 µM (inactive); with UACC-257, > 100 µM (inactive); in the experiment with SF-539, 90.2 µM (inactive); with MDA-MB-231, > 100 µM (inactive); in the experiment on BT-549 it was > 100 µM (inactive). The GI50 is > 100 µM (inactive) with KM12; > 100 µM (inactive) in the experiment with HOP-62; > 100 µM (inactive) in the experiment on K562; 37.7 µM (inactive) in the experiment with ACHN; > 100 µM (inactive) in the experiment on A498; > 100 µM (inactive) in the experiment with SNB-19.
`COC(=O)[C@@H]1[C@H](O)CCC2=C(CC(=O)c3ccoc3)[C@H](C)CC[C@]21C`: the GI50 in the experiment on OVCAR-5 was > 50 µM (inactive); in the experiment on SK-MEL-28, > 50 µM (inactive); with RXF 393, 41.7 µM (inactive); with LOX IMVI, 27.5 µM (inactive); with SK-MEL-5, 18.1 µM (inactive); in the experiment on OVCAR-4 it was 45 µM (inactive). In addition, the GI50 was 26.2 µM (inactive) in the experiment on OVCAR-3; 22.9 µM (inactive) in the experiment with UACC-257; > 50 µM (inactive) in the experiment with SF-539; > 50 µM (inactive) in the experiment with MDA-MB-231; 18.8 µM (inactive) in the experiment with BT-549; 36.1 µM (inactive) in the experiment on KM12. The GI50 was > 50 µM (inactive) with HOP-62; 16.8 µM (inactive) in the experiment with K562; > 50 µM (inactive) with ACHN; > 50 µM (inactive) in the experiment on A498; > 50 µM (inactive) in the experiment on SNB-19.
With `CC1=C/C(=N\O)C(C(O)(C(F)(F)F)C(F)(F)F)C(C)(C)C1` (configuration not stated), the GI50 in the experiment with OVCAR-5, in the experiment on SK-MEL-28, in the experiment with NCI-H522, in the experiment with LOX IMVI, in the experiment on SK-MEL-5 and with OVCAR-4 was > 10 µM (inactive) throughout. The GI50 in the experiment with SF-268, in the experiment on OVCAR-3, with UACC-257, in the experiment with SF-539, in the experiment on MDA-MB-231 and in the experiment with BT-549 was > 10 µM (inactive) each time. For the same compound, the GI50 in the experiment on KM12, with HOP-62, in the experiment on K562, with ACHN, with A498 and with SNB-19 was > 10 µM (inactive) in each case.
Consider `COc1ccc(NC(S)=Nc2cccc(C)n2)cc1`, for which the GI50 was > 100 µM (inactive) in the experiment with SK-MEL-28; 28.4 µM (inactive) in the experiment with RXF 393; > 100 µM (inactive) with LOX IMVI; > 100 µM (inactive) in the experiment on SK-MEL-5; > 100 µM (inactive) in the experiment on OVCAR-4; 55.1 µM (inactive) with SF-268. In addition, the GI50 in the experiment with UACC-257 is > 100 µM (inactive); with SF-539 it was 74.6 µM (inactive); with MDA-MB-231 it was > 100 µM (inactive); with BT-549, > 100 µM (inactive); in the experiment on KM12, > 100 µM (inactive); with HOP-62, 25.6 µM (inactive). The GI50 in the experiment on K562 is 75.3 µM (inactive); with ACHN, > 100 µM (inactive); in the experiment with A498 it was > 100 µM (inactive); with SNB-19, > 100 µM (inactive).
Take `Cc1cn(CCCCCCOC(=O)NC(CCCNC(=N)N)C(=O)O)c(=O)[nH]c1=O` (configuration not stated): the GI50 with OVCAR-5, in the experiment on SK-MEL-28, in the experiment with RXF 393, in the experiment with LOX IMVI, in the experiment on OVCAR-4 and in the experiment on SF-268 was > 100 µM (inactive) in each case. In addition, the GI50 with OVCAR-3, in the experiment with UACC-257, with SF-539, in the experiment with MDA-MB-231, in the experiment on BT-549 and in the experiment on KM12 was > 100 µM (inactive) each time. Also, the GI50 with HOP-62, in the experiment on K562, with ACHN, with A498 and in the experiment with SNB-19 was > 100 µM (inactive) throughout.
In the case of `CC(=O)OC1(C)C(=O)OC/C2=C/CN(C)CCC(OC(=O)C(O)(C(C)Cl)CC1C)C2=O.c1ccccc1` (configuration not stated), the GI50 in the experiment on OVCAR-5, with SK-MEL-28, in the experiment with NCI-H522, with LOX IMVI, in the experiment with SK-MEL-5 and in the experiment with OVCAR-4 was > 100 µM (inactive) throughout. Further, the GI50 in the experiment on SF-268, with OVCAR-3, in the experiment with UACC-257, in the experiment with SF-539, with MDA-MB-231 and with BT-549 was > 100 µM (inactive) throughout. Moreover, the GI50 in the experiment with KM12, with HOP-62, with K562, in the experiment with ACHN, in the experiment on A498 and with SNB-19 was > 100 µM (inactive) in each case.
With `CCOC(=O)NC`, the GI50 with OVCAR-5, in the experiment with SK-MEL-28, in the experiment on RXF 393, in the experiment with LOX IMVI, in the experiment on SK-MEL-5 and in the experiment with OVCAR-4 was > 100 µM (inactive) throughout. Also, the GI50 in the experiment with SF-268, in the experiment with OVCAR-3, in the experiment on UACC-257, with SF-539, with MDA-MB-231 and in the experiment on BT-549 was > 100 µM (inactive) each time. Also, the GI50 in the experiment on KM12, in the experiment on HOP-62, in the experiment on K562, with ACHN, in the experiment with A498 and with SNB-19 was > 100 µM (inactive) throughout.
As for `NC(=O)c1sc2nc3ccccc3n2c1N`, the GI50 with OVCAR-5 is > 100 µM (inactive); in the experiment on SK-MEL-28 it was > 100 µM (inactive); in the experiment with RXF 393 it was 21.1 µM (inactive); in the experiment with LOX IMVI it was 36.1 µM (inactive); with SK-MEL-5, > 100 µM (inactive); in the experiment with OVCAR-4, > 100 µM (inactive). Besides, the GI50 in the experiment with SF-268 is 47.2 µM (inactive); in the experiment on OVCAR-3, > 100 µM (inactive); with UACC-257, > 100 µM (inactive); in the experiment with SF-539, 21.5 µM (inactive); with MDA-MB-231, 24.9 µM (inactive); in the experiment with BT-549, 14.4 µM (inactive). For the same compound, the GI50 was 32.8 µM (inactive) in the experiment on HOP-62, 59.8 µM (inactive) in the experiment with ACHN, 63.1 µM (inactive) with A498 and 51.8 µM (inactive) with SNB-19.
